Measured values: article PMC7205388, “Per-6-Thiolated Cyclodextrins: A Novel Type of Permeation Enhancing Excipients for BCS Class IV Drugs” (ACS Applied Materials & Interfaces, 2020)

Tests used:
[1] = system: Caco-2 cell monolayer; test: TEER measurement on the Caco-2 cell monolayer; format: cell-based, human; settings: for decrease in TEER: Caco-2 monolayer, during 3 h permeation experiment; for TEER regained in comparison to initial values: after cell washing and incubating with MEM
Procedure: Permeation studies on the Caco-2 cell monolayer were executed as described previously.[23] Caco-2 cells at a density of 0.6 × 10^5 cells/cm^2 were seeded onto 24-well plates with ThinCert inserts (pore-size: 400 μm, Greiner Bio-One, Kremsmünster, Austria). Cells were cultured in MEM containing 20% FCS in an atmosphere of 5% CO2 and 95% humidity at 37 °C. The medium was renewed every other day for 21 days. For permeation studies, only cell monolayers showing a transepithelial electrical resistance (TEER) in the range of 300–500 Ω cm^2 were applied, which were determined with an EVOM instrument. TEER was also determined at time point 3 h representing the end of the permeation experiment and after 24 and 48 h to confirm monolayer integrity. Before the start of the experiment, cells were washed with PBS. Thereafter, 500 μL of MEM without FCS was transferred to the donor chamber and 1000 μL of the same medium was transferred to an accepter chamber.

[2] = Phase-solubility study with FUR (apparent stability constant KC); format: physicochemical; settings: aqueous solution, room temperature, 1:1 complex
Procedure: The suspension was homogenized at room temperature using a thermomixer (Thermomixer C, Eppendorf, Austria) at 750 rpm until equilibrium in solubility was reached (3–4 days).

[3] = Stability of −SH groups toward oxidation at different pH; format: physicochemical
Procedure: Furthermore, the stability of the thiolated CD was measured under different pH. In short, per-6-thiolated α-CD (0.25% m/v) was hydrated in water, and pH was adjusted to 4 and 5 with acetate buffer (50 mM), to 6 with phosphate buffer (50 mM), and to 7.2 with Tris buffer (50 mM). Test samples were kept under continuous stirring at 37 °C. After specific time intervals, aliquots of 500 μL were taken. Any further reaction was quenched by adding 50 μL of 1 M HCl to each aliquot.[18] Sulfhydryl groups were quantified using Ellman’s reagent.

[4] = Resazurin cytotoxicity assay on Caco-2 cells; format: cell-based, human; settings: human, read-out: cell viability
Procedure: (§1) The impact of per-6-thiolated α-CD on viability of human colorectal carcinoma (Caco-2) cells was evaluated by resazurin assay to confirm the safety of the newly synthesized oligomer. For this purpose, Caco-2 cells were obtained from the European Collection of Cell Cultures (Salisbury, UK). Caco-2 cells at a density of 2.5 × 10^4 cells/well were suspended in 500 μL of MEM and seeded to a 24-well plate. The plate was incubated at an atmosphere of CO2 (5%) and relative humidity (95%) at 37 °C for 2 weeks. During this culture period, the medium was replaced on alternative days.
(§2) Toxicity assay was performed to investigate the cytotoxic potential of per-6-thiolated α-CD by quantifying resorufin formed by the reduction of resazurin. On the day of the experiment, cells of around 80% confluency were washed two times with preheated 10 mM PBS pH 7.4. The oligomer solutions (500 μL) of per-6-thiolated and unmodified α-CD (0.5% m/v) in white MEM, 4% (v/v) Triton X-100 acting as a negative control and white MEM acting as a positive control were transferred to the cell culture wells.
(§3) After 3 and 24 h, test samples were withdrawn, and the cells were washed two times with preheated PBS. In the following, 500 μL of resazurin (2.2 μM) solution was added, and cells were further incubated for 3 h. Aliquots (100 μL) were inserted to a 96-well plate, and the fluorescence was analyzed at emission and excitation wavelength of 590 and 540 nm utilizing a microplate reader (M-200 spectrometer; Tecan infinite, Austria). Cell viability of cells was measured using eq 1 [drawing 1] 1

[5] = system: human colorectal carcinoma (Caco-2) cells; test: Resazurin cytotoxicity assay on Caco-2 cells; format: cell-based; settings: 0.5% (m/v), within 24 h
Procedure: as §1, §2, §3

[6] = pKa of −SH groups by photometric method; format: physicochemical; settings: 0.001 M HCl containing 0.1 M NaCl, titrated with 0.01% NaOH; absorbance at 242 nm, 0.1% m/v
Procedure: As the stability of sulfhydryl groups depends on thiolate anions concentration, the pKa value of −SH groups on per-6-thiolated α-CD was determined via an established photometric method with some modifications.[17] Briefly, ionic strength was stabilized by dissolving per-6-thiolated α-CD (0.1% m/v) in 0.001 M HCl containing 0.1 M NaCl. Increasing volumes of 0.01% NaOH were added to per-6-thiolated CD solutions that were continuously measured regarding pH and absorbance at 242 nm. The pKa was determined by plotting pH versus −log[(Amax – Ai)/Ai].

[7] = Quantification of −SH content with Ellman's reagent; format: physicochemical
Procedure: Per-6-thiolated α-CD was assessed for the amount of thiol by using Ellman’s reagent.[16] The calibration curve was established using L-cysteine.

SMILES	decrease in TEER [1]	apparent stability constant (KC) with FUR [2]	−SH groups oxidized ([3]; after 3 h at pH 5, 37 °C)	stability of −SH groups ([3]; pH 4, 37 °C, 0.25% m/v)	stability of −SH groups ([3]; pH ≤ 4)	viability at 3 h, 0.5 % (m/v) ([4]; after 3 h)	viability at 24 h, 0.5 % (m/v) ([4]; after 24 h)	cytotoxicity [5]	pKa [6]	TEER regained in comparison to initial values ([1]; after 24 h)	TEER regained in comparison to initial values ([1]; after 48 h)	amount of −S–S– groups on the CD backbone [7]	amount of −SH groups on the CD backbone ([7]; Ellman's reagent)
OC[C@H]1O[C@@H]2O[C@H]3[C@H](O)[C@@H](O)[C@@H](O[C@H]4[C@H](O)[C@@H](O)[C@@H](O[C@H]5[C@H](O)[C@@H](O)[C@@H](O[C@H]6[C@H](O)[C@@H](O)[C@@H](O[C@H]7[C@H](O)[C@@H](O)[C@@H](O[C@H]1[C@H](O)[C@H]2O)O[C@@H]7CO)O[C@@H]6CO)O[C@@H]5CO)O[C@@H]4CO)O[C@@H]3CO [α-CD, α-cyclodextrin, reference compound]	~15%	1050.7 M^–1	–	–	–	–	–	–	–	–	–	–	–
O[C@@H]1[C@@H](O)[C@H]2O[C@H]3[C@H](O)[C@@H](O)[C@@H](O[C@H]4[C@H](O)[C@@H](O)[C@@H](O[C@H]5[C@H](O)[C@@H](O)[C@@H](O[C@H]6[C@H](O)[C@@H](O)[C@@H](O[C@H]7[C@H](O)[C@@H](O)[C@@H](O[C@@H]1[C@@H](CS)O2)O[C@@H]7CS)O[C@@H]6CS)O[C@@H]5CS)O[C@@H]4CS)O[C@@H]3CS [per-6-thiolated α-CD, per-6-thiolated α-cyclodextrin]	up to 28%	1090.9 M^–1	15%	stable	stable	> 88%	> 88%	not cytotoxic	8.1	82%	90%	786 ± 139 µmol/g	4244 ± 402 µmol/g
